Measured values from patent US7998992B2, “Oxazolidinone derivative having inhibitory activity on 11β-hydroxysteroid dehydrogenase type 1” (Institute of Medicinal Molecular Design, Inc., priority 2007, dated 2011).

How the values were obtained:
Mouse 11β-HSD1 = Mouse 11β-HSD1 (Mus musculus, UniProt P50172); assay: Evaluation of compound against mouse 11β-HSD1 (HTRF corticosterone assay); type: biochemical; settings: substrate 11-dehydrocorticosterone 2 μM, 37° C. for 2 hours, HTRF method
Description: (§1) After preincubating an inhibitor in a reaction solution consisting of 50 mM sodium phosphate buffer (pH 7.6), bovine serum albumin (1 mg/mL), NADPH (0.42 mg/mL), glucose-6-phosphate (1.26 mg/mL), glucose-6-phosphate dehydrogenase, and an enzyme at room temperature for 30 minutes, 11-dehydrocorticosterone (2 μM) which is a substrate was added (total amount 10 μL). After reacting at 37° C. for 2 hours, an XL-665-labeled cortisol solution (5 μL), and a Cryptate-labeled anti-cortisol antibody solution (5 μL) were added, a reaction was performed at room temperature for 2 hours, and fluorescence intensity (HTRF method) was measured.
A corticosterone concentration was measured from a standard curve prepared using a known concentration of corticosterone for each assay.
Taking a concentration of corticosterone generated in the absence of the inhibitor as a control value, 50% inhibition concentration (IC50 value) of the inhibitor against 11β-HSD1 was calculated from an inhibition curve plotting inhibition rate against the control value at each concentration of the inhibitor.

Human 11β-HSD1 = Human 11β-HSD1 (Homo sapiens, UniProt P28845); assay: Evaluation of compound against human 11β-HSD1 (HTRF cortisol assay); type: biochemical; settings: substrate cortisone 5 μM, 37° C. for 2 hours, HTRF method
Sequence of Human 11β-HSD1 (P28845 whole entry): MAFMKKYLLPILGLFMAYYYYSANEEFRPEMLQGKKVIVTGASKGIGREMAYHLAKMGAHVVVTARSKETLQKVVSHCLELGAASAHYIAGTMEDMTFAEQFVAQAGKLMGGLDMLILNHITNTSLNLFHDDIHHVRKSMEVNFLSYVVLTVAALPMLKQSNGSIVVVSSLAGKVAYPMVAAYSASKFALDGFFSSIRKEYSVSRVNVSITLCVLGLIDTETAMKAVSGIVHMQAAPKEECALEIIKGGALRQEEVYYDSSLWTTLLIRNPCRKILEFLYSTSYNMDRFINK
Description: as §1, with “dehydrogenase” for “dehydrogenase,”, “cortisone (5” for “11-dehydrocorticosterone (2”, “measured. A cortisol concentration was measured from a standard curve prepared using a known concentration of cortisol for each assay.” for “measured.”
Taking a concentration of cortisol generated in the absence of the inhibitor as a control value, 50% inhibition concentration (IC50 value) of the inhibitor against 11β-HSD1 was calculated from an inhibition curve plotting inhibition rate against the control value at each concentration of an inhibitor.

Sequence of Mouse 11β-HSD1 (P50172 whole entry): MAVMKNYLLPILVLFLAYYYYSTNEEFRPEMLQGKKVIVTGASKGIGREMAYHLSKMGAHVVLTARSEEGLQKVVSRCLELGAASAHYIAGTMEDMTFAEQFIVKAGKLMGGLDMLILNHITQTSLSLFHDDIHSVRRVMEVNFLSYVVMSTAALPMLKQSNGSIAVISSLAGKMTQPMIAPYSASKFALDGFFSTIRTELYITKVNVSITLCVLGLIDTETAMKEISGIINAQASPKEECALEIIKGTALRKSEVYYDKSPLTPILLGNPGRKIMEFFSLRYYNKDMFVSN

CCN(C[C@@H]1CN(C2CCCCCCC2)C(=O)O1)S(=O)(=O)c1ccccc1 [Compound I-21]
IC50 (Mouse 11β-HSD1): 8.4 µM | IC50 (Human 11β-HSD1): 0.43 µM
